Test system: human skin
Assay: Clinical study with a cream for skincare against skin aging
Format: in vivo, humans
Conditions: comparison of skin creams in the clinical study
Method: A cream base was used having the following ingredients:
The huSOD-peptide OA 05 conjugate was produced as described in example 4.
The following compositions of skin cream were prepared for use in the clinical study:
The properties were evaluated according the following criteria: “firmness of the skin”, “reduction of superficial wrinkles”, “reduction of deeper wrinkles”, “skin regeneration”, and “appearance of young skin”. The questionnaire was filled out at least 4 weeks after starting of using the skin cream.
The application of the skin cream was done in all Groups (I to V) over 6 weeks twice a day, creaming the face and the neck in the morning and in the evening without using any other skin products. No application was discontinued in any group. The observation period (counted from the first application) was minimum 4 weeks and maximum 10 weeks.
Furthermore, a total evaluation of the different applied skin creams on a score ranging from 1 (excellent) to 6 (very poor) was performed.

| Substance | beneficial effect on aging parameters in the human skin |
| --- | --- |
| KKKQKRKK (Cargo Peptide) [OA 05] | significantly increases the beneficial effect of SOD |
| SOD: Super-Oxid- Dismutase (SOD), a free radical catcher; huSOD from Jena Biosciences | has a beneficial effect on different aging parameters in the human skin |
